Laboratory results from article PMC10762035, “Molecular basis of human trace amine-associated receptor 1 activation” (Nature Communications, 2024).
Changes are numbered by the printed parent chain. “And” between values parts separate entries of the source, which are not always exact repeats. Equal entries are not always repeated.

Tests used:
hTA1 C96S = target: T1, hTA1 C96S (Homo sapiens, UniProt Q96RJ0, C96S); assay: GloSensor cAMP accumulation assay, C96S mutant; format: cell-based; conditions: log[Compound]
T1 construct: expressed in transfected cells; host or cells: HEK293T
T1 sequence (Q96RJ0 1-339 C96S): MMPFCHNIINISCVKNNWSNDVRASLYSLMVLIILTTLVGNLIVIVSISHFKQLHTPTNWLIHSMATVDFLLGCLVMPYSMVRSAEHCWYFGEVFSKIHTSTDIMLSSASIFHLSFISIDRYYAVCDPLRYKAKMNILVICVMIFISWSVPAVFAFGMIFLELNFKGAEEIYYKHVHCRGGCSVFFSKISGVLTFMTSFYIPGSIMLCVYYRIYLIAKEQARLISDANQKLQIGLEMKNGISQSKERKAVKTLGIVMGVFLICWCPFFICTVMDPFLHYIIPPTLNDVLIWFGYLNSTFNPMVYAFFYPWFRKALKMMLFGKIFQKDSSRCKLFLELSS

hTA1 T194A = target: T2, hTA1 T194A (Homo sapiens, UniProt Q96RJ0, T194A); assay: GloSensor cAMP accumulation assay, T194A mutant
T2 sequence (Q96RJ0 1-339 T194A): T1 sequence (Q96RJ0 1-339 C96S) with S96C, T194A

hTA1 T271A = target: T3, hTA1 T271A (Homo sapiens, UniProt Q96RJ0, T271A); assay: GloSensor cAMP accumulation assay, T271A mutant; format: cell-based
T3 construct: expressed in transfected cells; host or cells: HEK293T
T3 sequence (Q96RJ0 1-339 T271A): T1 sequence (Q96RJ0 1-339 C96S) with S96C, T271A

hTA1 I290Y = target: T4, hTA1 I290Y (Homo sapiens, UniProt Q96RJ0, I290Y); assay: GloSensor cAMP accumulation assay, I290Y mutant; format: cell-based; conditions: for cAMP accumulation response, normalized (concentration-response source data, single replicate values): hTA1 I290Y (N=3), log[Compound];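 for cAMP accumulation response, normalized (concentration-response source data, single replicate values): normalized to the maximum response of β-PEA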
T4 construct: expressed in transfected cells; host or cells: HEK293T
T4 sequence (Q96RJ0 1-339 I290Y): T1 sequence (Q96RJ0 1-339 C96S) with S96C, I290Y

hTA1 C88S = target: T5, hTA1 C88S (Homo sapiens, UniProt Q96RJ0, C88S); assay: GloSensor cAMP accumulation assay, C88S mutant; format: cell-based; conditions: C88S
T5 construct: expressed in transfected cells; host or cells: HEK293T
T5 sequence (Q96RJ0 1-339 C88S): T1 sequence (Q96RJ0 1-339 C96S) with C88S, S96C

Cc1c(F)cccc1[C@H]1COC(N)=N1 [Ro5263397]
Normalized Luminescence Counts (hTA1 C96S; C96S, M = -5, single replicates (N=2)): 9.313 (2×) and 10.6308 and 10.8582 and 5.048 and -2.698 | Normalized Luminescence Counts (hTA1 C96S; C96S, M = -5.522, single replicates (N=2)): 2.723 and 6.018 and 1.4045 and 10.8582 and 101.879 and 20.5413 | Normalized Luminescence Counts (hTA1 C96S; C96S, M = -6, single replicates (N=2)): 1.4045 (2×) and 2.064 and 3.112 and 14.7315 and -4.6346 | Normalized Luminescence Counts (hTA1 C96S; C96S, M = -6.522, single replicates (N=2)): -1.891 (2×) and 0.08646 and -2.698 (2×) and -0.7614 | Normalized Luminescence Counts (hTA1 C96S; C96S, M = -7, single replicates (N=2)): -0.5726 and 2.723 and -2.55 and 37.9707 and -8.508 and -4.6346 | Normalized Luminescence Counts (hTA1 C96S; C96S, M = -7.522, single replicates (N=2)): 2.064 and 1.4045 and -1.232 and -2.698 and 12.7948 and -14.3176 | Normalized Luminescence Counts (hTA1 C96S; C96S, M = -8, single replicates (N=2)): -0.5726 and 0.08646 and -1.891 and 14.7315 (3×) | Normalized Luminescence Counts (hTA1 C96S; C96S, M = -8.522, single replicates (N=2)): 0.08646 and 2.064 and -1.232 and 22.4779 and 6.985 (2×) | Normalized Luminescence Counts (hTA1 C96S; C96S, M = -9, single replicates (N=2)): -3.868 and 0.08646 and -3.209 and 10.8582 (3×) | Normalized Luminescence Counts (hTA1 C96S; C96S, M = -9.522, single replicates (N=2)): -3.209 and 0.08646 and -5.186 and 1.175 and 3.112 (2×) | Normalized Luminescence Counts (hTA1 C96S; C96S, M = -10, single replicates (N=2)): -3.209 and 0.08646 and -0.5726 and 28.2877 and 5.048 and 61.21 | Normalized Luminescence Counts (hTA1 C96S; C96S, M = -10.522, single replicates (N=2)): -2.55 and -0.5726 and -3.868 and -0.7614 (2×) and 1.175 | Normalized Luminescence Counts (hTA1 C96S; C96S, M = -11, single replicates (N=2)): 0.7455 (2×) and 4.041 and 47.6538 and 53.4636 and 12.7948 | Normalized Luminescence Counts (hTA1 C96S; C96S, M = -11.522, single replicates (N=2)): 2.064 and 4.7 and 0.08646 and 8.922 | Normalized Luminescence Counts (hTA1 C96S; M = -11.522, single replicates, mutant block above C178S): 1.347 and 1.551 and 1.574 and 1.444 and 1.07 and 0.4821 | Normalized Luminescence Counts (hTA1 C96S; M = -12, single replicates, mutant block above C178S): 2.211 and 3.099 and 1.62 and 0.7492 and 1.283 and 0.5889 | Normalized Luminescence Counts (hTA1 C96S; M = -12.522, single replicates, mutant block above C178S): 0.07201 and 0.2541 and -0.1784 and 1.444 and 0.7492 and -0.5864 | ΔpEC50 values (each mutant value - WT average), Mean (hTA1 T194A; T149A (so in the source) minus WT average): -1.583 and -1.53 and -1.429 | pEC50 values, Mean (hTA1 T194A; T149A (so in the source), single experiments (3 replicates each)): 7.248 and 7.301 and 7.402 | Emax values, Mean (hTA1 T194A; T149A (so in the source), single experiments (3 replicates each), β-PEA = 100): 143.384 and 86.8999 and 99.8921 | EC50 (hTA1 T194A; T194A): 56.4 nM | Span ± SEM (Emax normalized to β-PEA) (hTA1 T194A; T194A): 110.06 | pEC50 ± SEM (hTA1 T194A; T194A): 7.32 ± 0.14 | reduction in potency vs wild type (hTA1 T194A; T194A): over 30 fold | ΔpEC50 values (each mutant value - WT average), Mean (hTA1 T271A; T271A mutant minus WT average, Figure 5B): -0.5707 and -0.4899 | pEC50 values, Mean (hTA1 T271A; T271A mutant, Figure 5B, each row one independent experiment (3 replicates)): 8.26 and 8.341 | Emax values, Mean (hTA1 T271A; T271A mutant, Figure 5B, β-PEA = 100, each row one independent experiment (3 replicates)): 76.005 and 87.3949 | Span ± SEM (Emax normalized to β-PEA) (hTA1 T271A; T271A, n=2): 81.70 ± 5.69 | pEC50 ± SEM (hTA1 T271A; T271A, n=2): 8.3 ± 0.07 | EC50 (hTA1 T271A; T271A, n=2, read-out: EC50): 5 nM | Span ± SEM (Emax normalized to β-PEA) (hTA1 I290Y; I290Y): 61.58 ± 3.99 | pEC50 ± SEM (hTA1 I290Y; I290Y): 9.16 ± 0.18 | EC50 (hTA1 I290Y; I290Y, read-out: EC50): 0.69 nM and 0.7 nM | Emax values, Mean (hTA1 I290Y; I290Y, single experiments (3 replicates each), β-PEA = 100): 59.7265 and 69.2263 and 55.7889 | cAMP accumulation response, normalized (concentration-response source data, single replicate values) (hTA1 I290Y; M = -5): 77.8381 and 104.308 and 85.2251 and 91.2333 and 75.1101 and 85.0039 and 68.1063 and 86.1539 and 148.193 | cAMP accumulation response, normalized (concentration-response source data, single replicate values) (hTA1 I290Y; M = -5.522): 49.5212 and 78.7614 and 62.4485 and 78.7745 and 74.7437 and 50.1924 and 55.6986 and 43.2908 and 39.9069 | cAMP accumulation response, normalized (concentration-response source data, single replicate values) (hTA1 I290Y; M = -6): 40.5953 and 87.0718 and 61.2173 and 64.117 and 63.3841 and 61.5519 and 45.5468 (2×) and 50.0587 | cAMP accumulation response, normalized (concentration-response source data, single replicate values) (hTA1 I290Y; M = -6.522): 56.6004 and 53.5225 and 48.9057 and 84.6375 and 52.7574 and 75.4765 and 66.9783 and 45.5468 and 38.7789 | cAMP accumulation response, normalized (concentration-response source data, single replicate values) (hTA1 I290Y; M = -7): 35.3628 and 69.2199 and 41.5187 and 56.0554 and 64.117 and 50.9252 and 46.6748 and 39.9069 and 45.5468 | cAMP accumulation response, normalized (concentration-response source data, single replicate values) (hTA1 I290Y; M = -7.522): 46.4433 and 76.2991 and 50.1368 and 60.819 and 63.0177 and 60.4526 and 39.9069 and 45.5468 and 47.8027 | cAMP accumulation response, normalized (concentration-response source data, single replicate values) (hTA1 I290Y; M = -8): 61.8329 and 86.4562 and 67.9887 and 68.1478 and 70.3464 and 73.6443 and 36.523 and 37.651 and 32.0111 | cAMP accumulation response, normalized (concentration-response source data, single replicate values) (hTA1 I290Y; M = -8.522): 54.7537 and 78.4536 and 76.2991 and 69.98 and 71.4457 and 63.7505 and 30.8831 and 33.1391 (2×) | cAMP accumulation response, normalized (concentration-response source data, single replicate values) (hTA1 I290Y; M = -9): 45.2122 and 78.7614 and 61.8329 and 45.0622 and 50.1924 and 56.0554 and 15.0915 and 19.6034 and 12.8355 | cAMP accumulation response, normalized (concentration-response source data, single replicate values) (hTA1 I290Y; M = -9.522): 19.3577 and 32.5927 and 26.1291 and 49.4595 and 39.5657 and 25.2746 and 3.812 (2×) and 8.324 | cAMP accumulation response, normalized (concentration-response source data, single replicate values) (hTA1 I290Y; M = -10): 27.9758 and 29.5148 and 27.3602 and 7.319 and 9.884 and 17.5794 and 0.4278 and 2.684 and 7.196 | cAMP accumulation response, normalized (concentration-response source data, single replicate values) (hTA1 I290Y; M = -10.522): 6.738 | Emax values (hTA1 C88S; Mean of fit per experiment): 109.361 and 91.1412 | Span ± SEM (Emax normalized to β-PEA) (hTA1 C88S; n=2): 100.25 ± 9.11 | pEC50 ± SEM (hTA1 C88S; n=2): 8.78 ± 0.06 | EC50 (hTA1 C88S; n=2, read-out: EC50): 1.64 nM | Emax (hTA1 C88S; relative to β-PEA): 100.3%
